Assay results as given in patent US20070098649A1, “Method and composition for controlling oral pathogens” (priority 2004, published 2007).
Read-outs that look alike come from different tables or passages of the source. Marks after values point to notes of the source that are not given here.

How the values were obtained:
[1] = tested on: F. nucleatum; experiment: Viability assessment (bactericidal activity); assay type: cell-based
Experimental: (§1) Two representative organisms, S. mutans and F. nucleatum, were used in this study. […] Aliquots of 4 ml of agent, prepared in sterile water, were placed into sterile test tubes and 1 ml of adjusted cells was added. The control consisted of 4 ml of PBS and 1 ml of cells. Samples were removed at 0, 15, 30, and 60 minutes, serial dilutions were performed, and the appropriate dilutions plated out. The plates were incubated at 37° C. under appropriate atmospheric conditions for up to 72 hours. Viable colony counts were determined and compared to nontreated control Percentage kill was calculated using the formula: ([…]×100. Log reduction was also calculated on Log10 transformed data. Effect of Berberine on Cell Surface Hydrophobicity

[2] = tested on: S. mutans; experiment: Viability assessment (bactericidal activity); assay type: cell-based
Experimental: as §1

[3] = tested on: S. gordonii; experiment: Growth on agar with berberine and/or methylene blue (efflux screen); assay type: cell-based
[4] = tested on: S. mutans; experiment: as above; assay type: cell-based
[5] = tested on: S. mutans; experiment: Relative cell surface hydrophobicity (hexanes partition); assay type: cell-based
[6] = tested on: A. actinomycetemcomitans; experiment: as above; assay type: cell-based
[7] = tested on: P. gingivalis; experiment: as above; assay type: cell-based
[8] = tested on: F. nucleatum; experiment: as above; assay type: cell-based
[9] = tested on: S. gordonii; experiment: as above; assay type: cell-based
[10] = tested on: A. actinomycetemcomitans; experiment: Accumulation of berberine, fluorimetric assay; assay type: cell-based; details: CCCP 100 μM added five minutes after berberine; FIG. 1
Experimental: Accumulation of berberine in A. actinomycetemcomitans was evaluated using a fluorimetric assay (based in Giraud et al., 2000). Overnight cells were harvested as previously described, washed twice with 50 mM sodium phosphate buffer (pH 7), resuspended in the same buffer at a concentration of 1×10^9 CFU ml^−1. The cells were equilibrated for 10 minutes at 37° C. Berberine was added at a final concentration of 500 μg ml^−1. After addition of berberine, 0.5 ml samples were removed at different time intervals. Five minutes after the addition of berberine, the efflux pump inhibitor carbonyl cyanide m-chlorophenylhydrazone (CCCP) was added to the reaction mixture (final concentration 100 μM). The samples were immediately diluted with 1 ml ice-cold sodium phosphate buffer and then were centrifuged for 5 minutes at 560.0×g. The pellet was washed once with 1 ml ice-cold buffer and resuspended in 1 ml of 0.1 M glycine hydrochloride (pH 3) for at least 15 hours at room temperature. The fluorescence of the supernatant was measured (excitation 355 nm and emission 517 nm) with a spectrofluorimeter (Model 810/814, Photon Technology International, Monmouth Junction, N.J.).

[11] = tested on: test bacteria; experiment: Relative cell surface hydrophobicity, statements on the test bacteria; assay type: cell-based; details: summary of Table 12
[12] = tested on: Porphymonas gingivalis; experiment: MIC microdilution assay; assay type: cell-based; details: Porphyromonas gingivalis, P. gingivalis
[13] = tested on: Streptococcus mutans; experiment: MIC microdilution assay; assay type: cell-based; details: Streptococcus mutans, S. mutans
[14] = tested on: Streptococcus gordonii; experiment: MIC microdilution assay; assay type: cell-based; details: Streptococcus gordonii, S. gordonii
[15] = tested on: Pseudomonas aeruginosa; experiment: MIC microdilution assay; assay type: cell-based; details: Pseudomonas aeruginosa; P. aeruginosa; agent alone; read-out: MIC of the antimicrobial agents alone
[16] = tested on: oral pathogens; experiment: Combination determination, statements on the oral pathogens; assay type: cell-based; details: berberine hydrochloride / berberine (B-CG and B-S)
Experimental: (§2) The alkaloids were tested in pair-wise combinations (fractional inhibitory concentrations, FIC) against all the bacteria to determine whether interactions were antagonistic (FIC>1), additive (0.5<FIC<1), or synergistic (FIC<0.5). The FIC was calculated by the following: (MIC Acombination/MIC Aalone)+(MIC Bcombination/MIC Balone). Where A represents compound 1 and B represents compound 2. […] In the case of A. actinomycetemcomitans and P. aeruginosa, CHX was used at 0.78 to 50 μg ml^−1. Berberine (B-CG and B-S) was used at concentrations 0.9 to 250 μg ml^−1. The antibacterial efficacy of berberine (1.95 to 500 μg ml^−1) was tested in combination against P. aeruginosa with CHX (0.78 to 50 μg ml^−1) (Sigma Chemicals) and the polymyxin antibiotic Col (0.04 to 25 μg ml^−1) (Sigma Chemicals). The plates were incubated for 24 hours.

[17] = tested on: Escherichia coli; experiment: Combination determination (FIC, MIC in combination); assay type: cell-based; details: E. coli
Experimental: as §2

[18] = tested on: Pseudomonas aeruginosa; experiment: as above; assay type: cell-based; details: P. aeruginosa
Experimental: as §2

[19] = tested on: Porphymonas gingivalis; experiment: as above; assay type: cell-based; details: P. gingivalis
Experimental: as §2

[20] = tested on: Actinobacillus actinomycetemcomitans; experiment: as above; assay type: cell-based; details: A. actinomycetemcomitans grown under anaerobic conditions; berberine (B-CG) combined with CHX, Tet or Dox; MIC of the named agent in the combination
Experimental: as §2

[21] = tested on: Streptococcus gordonii; experiment: as above; assay type: cell-based; details: S. gordonii
Experimental: as §2

[22] = tested on: Staphylococcus aureus; experiment: as above; assay type: cell-based; details: S. aureus
Experimental: as §2

[23] = tested on: Fusobacterium nucleatum; experiment: as above; assay type: cell-based; details: F. nucleatum
Experimental: as §2

[24] = tested on: Staphylococcus aureus; experiment: MIC microdilution assay; assay type: cell-based; details: S. aureus, agent alone, read-out: MIC of the antimicrobial agents alone
[25] = tested on: Actinobacillus actinomycetemcomitans; experiment: MIC microdilution assay; assay type: cell-based; details: Aggregatibacter actinomycetemcomitans
[26] = tested on: Streptococcus mutans; experiment: Combination determination (FIC, MIC in combination); assay type: cell-based; details: S. mutans
Experimental: as §2
CHX was diluted from left to right at 10 to 0.08 μg ml^−1 ([…] 1 to 8), berberine was diluted from top to bottom at 250 to 0.09 μg ml^−1 ([…] 1 to 8). Column 9 was the cell control, column 10 was berberine alone (250 to 0.09 μg ml^−1); and column 11 was CHX alone (10 to 0.08 μg ml^−1). Row H was the solvent control (8% DMSO, H1 to H8). Column 12 was the media blank. The dilution assay was designed such that A1 contained the highest concentration of both agents (berberine 250 μg ml^−1 and CHX 10 μg ml^−1). The final concentration of berberine in wells A2 to A8 was […]. The FIC value was calculated from well C6. FIC was calculated by: (MIC Acombination/MIC Aalone)+(MIC Bcombination/MIC Balone).

[27] = tested on: Escherichia coli; experiment: MIC microdilution assay; assay type: cell-based; details: E. coli, agent alone, read-out: MIC of the antimicrobial agents alone
[28] = tested on: Fusobacterium nucleatum; experiment: MIC microdilution assay; assay type: cell-based; details: Fusobacterium nucleatum, F. nucleatum
[29] = rats; oral; tritiated; cited from earlier work
[30] = tested on: wild type S. aureus; details: cited from earlier work
[31] = agar with 62.5, 125, 250 μg ml^−1, 48 hours at 37° C.
[32] = agent alone, read-out: MIC of the antimicrobial agents alone
[33] = berberine (B-CG) combined with CHX, Tet or Dox, MIC of the named agent in the combination
[34] = berberine hydrochloride / chloride

COc1ccc2cc3[n+](cc2c1OC)CCc1cc2c(cc1-3)OCO2 [B-CG, berberine chloride]
Viability after 60 min exposure (mean Log10 reduction of CFU) ([1]; B-CG (500) μg ml^−1): 2.77 Log10
Viability after 60 min exposure (mean Log10 reduction of CFU) ([1]; B-CG (1000) μg ml^−1): 3.22 Log10
Viability after 60 min exposure (mean Log10 reduction of CFU) ([2]; B-CG (500) μg ml^−1): 0 Log10
Viability after 60 min exposure (mean Log10 reduction of CFU) ([2]; B-CG (1000) μg ml^−1): 1 Log10
Concentration of B-CG in agar at which growth occurred [3, 31]: 62.5 µg/mL
Concentration of B-CG in agar at which growth occurred [4, 31]: 62.5 µg/mL
Typical reduction scores on relative cell surface hydrophobicity ([5]; berberine 500 μg ml^−1): 14.8%
Typical reduction scores on relative cell surface hydrophobicity ([6]; berberine 500 μg ml^−1): −31.6%
Typical reduction scores on relative cell surface hydrophobicity ([7]; berberine 500 μg ml^−1): 26.7%
Typical reduction scores on relative cell surface hydrophobicity ([8]; berberine 500 μg ml^−1): 29.9%
Typical reduction scores on relative cell surface hydrophobicity ([9]; berberine 500 μg ml^−1): 26.1%

N#CC(C#N)=NNc1cccc(Cl)c1 [CCCP, carbonyl cyanide m-chlorophenylhydrazone]
Effect on berberine accumulation [10]: very rapid and marked increase in berberine accumulation

[H]/N=C(\N/C(=N/[H])NCCCCCCNC(=N)NC(=N)Nc1ccc(Cl)cc1)Nc1ccc(Cl)cc1 [CHX, chlorhexidine gluconate]
Effect on the relative hydrophobicity of the cells [11]: did not appear to affect
MIC [12, 32]: 1.25 mg/L
MIC ([12]; Pg, read-out: MIC of Goldenseal Alkaloids Against Selected Oral Pathogens): 2.5 mg/L
Viability after 60 min exposure (mean Log10 reduction of CFU) ([1]; CHX (20)): 3.09* Log10
Viability after 60 min exposure (mean Log10 reduction of CFU) ([2]; CHX (20) μg ml^−1): 1.69 Log10
MIC [13, 32]: 1.25 mg/L
MIC ([13]; Sm, read-out: MIC of Goldenseal Alkaloids Against Selected Oral Pathogens): 1.25 mg/L
MIC [14, 32]: 5 mg/L
MIC ([14]; Sg, read-out: MIC of Goldenseal Alkaloids Against Selected Oral Pathogens): 5 mg/L
MIC [15]: 6.25 mg/L
Typical reduction scores on relative cell surface hydrophobicity ([5]; agent alone 5 μg ml^−1): 5.1%
Growth inhibition effect when combined with berberine [16]: synergistic
MIC of the antimicrobial agents in combination [17, 33]: 0.63 mg/L
Growth inhibition effect when combined with berberine [17, 34]: synergistic
Approximate amount of antibiotic required when combined with berberine relative to when the agent is used alone ([17]; fraction of the amount alone): ½
Interaction when combined with berberine [18]: no clear additive or synergistic effect
MIC of the antimicrobial agents in combination ([18]; berberine combined with CHX or Col, MIC of the named agent in the combination): 3.13** μg ml^−1
MIC of the antimicrobial agents in combination [19, 33]: 0.08 mg/L
Approximate amount of antibiotic required when combined with berberine relative to when the agent is used alone ([19]; fraction of the amount alone): <½
MIC of the antimicrobial agents in combination [20]: 50 mg/L
MIC of the antimicrobial agents in combination [21, 33]: 0.63 mg/L
Approximate amount of antibiotic required when combined with berberine relative to when the agent is used alone ([21]; fraction of the amount alone): <½
MIC of the antimicrobial agents in combination [22, 33]: 0.63 mg/L
Growth inhibition effect when combined with berberine [22, 34]: synergistic
Approximate amount of antibiotic required when combined with berberine relative to when the agent is used alone ([22]; fraction of the amount alone): ½
MIC of the antimicrobial agents in combination [23, 33]: 0.31 mg/L
Approximate amount of antibiotic required when combined with berberine relative to when the agent is used alone ([23]; fraction of the amount alone): <½
MIC [24]: 2.5 mg/L
Typical reduction scores on relative cell surface hydrophobicity ([6]; agent alone 5 μg ml^−1): −2.6%
MIC ([25]; A. actinomycetemcomitans grown under anaerobic conditions, agent alone, read-out: MIC of the antimicrobial agents alone): 50 mg/L
MIC ([25]; Aa, A. actinomycetemcomitans, read-out: MIC of Goldenseal Alkaloids Against Selected Oral Pathogens): 50 mg/L
Typical reduction scores on relative cell surface hydrophobicity ([7]; agent alone 5 μg ml^−1): −2.7%
MIC of the antimicrobial agents in combination [26, 33]: 0.04 mg/L
Approximate amount of antibiotic required when combined with berberine relative to when the agent is used alone ([26]; fraction of the amount alone): <½
MIC alone used for the FIC ([26]; same plate, 48 h): 1.25 mg/L
MIC in combination used for the FIC ([26]; well C6, berberine (B-G) with CHX, 48 h): 0.3125 mg/L
Typical reduction scores on relative cell surface hydrophobicity ([8]; agent alone 5 μg ml^−1): 3.7%
MIC [27]: 1.25 mg/L
Typical reduction scores on relative cell surface hydrophobicity ([9]; agent alone 5 μg ml^−1): −6.3%
MIC [28, 32]: 2.5 mg/L
MIC ([28]; Fn, read-out: MIC of Goldenseal Alkaloids Against Selected Oral Pathogens): 2.5 mg/L

COc1ccc2cc3[n+](cc2c1OC)CCc1cc2c(cc1-3)OCO2 [berberine chloride]
Excretion after 48 hours [29]: majority of the administered dose had been excreted in feces
Time of peak levels in liver and muscles [29]: 12 h

CN(C)c1ccc2nc3ccc(=[N+](C)C)cc-3sc2c1 [methylene blue (MB), methylene blue]
Growth on agar in the presence of methylene blue ([3]; 50 μg/ml): did not grow
Growth on agar in the presence of methylene blue ([4]; 50 μg/ml): did not grow

COC(=O)[C@H]1[C@H]2C[C@@H]3c4[nH]c5cc(OC)ccc5c4CCN3C[C@H]2C[C@@H](OC(=O)c2cc(OC)c(OC)c(OC)c2)[C@@H]1OC [reserpine]
Inhibition of the efflux of norfloxacin [30]: at least four
